US12338220B2, “Antiviral pyrazolopiridinone compounds” (Novartis AG, priority 2019, dated 2025)
Like-named read-outs stand apart in the source and are kept apart here.

Experiments:
CMV-polymerase = CMV-polymerase (Human cytomegalovirus (strain AD169) (HHV-5) (Human herpesvirus 5), UniProt P08546); assay: biochemical
[1] = tested on: KOS strain of HSV-1 virus; assay: HSV-1 qPCR assay; details: Human alphaherpesvirus 1, 24 h
VZV Ellen strain = assay: VZV qPCR assay; details: Human alphaherpesvirus 3, MRC5, 48 h, read-out: Cellular activity against VZV (EC50)
CMV = assay: microbe, parasite or virus in culture; assay type: cell-based
[2] = tested on: EBV (SNU-719 cells latently infected); assay: EBV qPCR assay; details: human gammaherpesvirus 4, 72 h, read-out: Cellular activity against EBV (EC50)
HSV-polymerase = HSV-polymerase (Human herpesvirus 1 (strain 17) (HHV-1) (Human herpes simplex virus 1), UniProt P04293); assay: biochemical
[3] = read-out: CMV-polymerase Biochemical IC50
[4] = read-out: Cellular activity against HSV-1 (EC50), NN-NHDF cells, MOI 0.01, 24 hrs, qPCR
[5] = Human betaherpesvirus 5, 72 h, read-out: CMV-Luc Cellular EC50, NN-NHDF cells, MOI 1, 72 hrs
[6] = Human betaherpesvirus 5, read-out: Cellular activity against CMV (EC50), Table 18
[7] = read-out: Cellular activity against HSV-1 (EC50)

Compound	IC50 (CMV-polymerase; [3])	EC50 [1, 4]	EC50 (VZV Ellen strain)	EC50 (CMV; [5])	EC50 (CMV; [6])	IC50 (CMV-polymerase; CMV-polymerase Biochemical IC50)	EC50 [2]	IC50 (HSV-polymerase)	EC50 [1, 7]
Cn1nc(C(=O)NCc2ccc(Cl)cc2)c2c1C(=O)N(CC1(S(=O)(=O)C3CC3)CC1)CC2 [Example 4, N-(4-Chlorobenzyl)-6-((1-(cyclopropylsulfonyl)cyclopropyl)methyl)-1-methyl-7-oxo-4,5,6,7-tetrahydro-1H-pyrazolo[3,4-c]pyridine-3-carboxamide]	0.002 µM	0.064 µM	0.008 µM	0.023 µM	0.023 µM	–	–	–	–
Cn1nc(C(=O)NCc2ccc(Cl)cc2)c2c1C(=O)N(CC1(S(=O)(=O)C(C)(CO)CO)CC1)CC2 [Example 175, N-(4-chlorobenzyl)-6-((1-((1,3-dihydroxy-2-methylpropan-2-yl)sulfonyl)cyclopropyl)methyl)-1-methyl-7-oxo-4,5,6,7-tetrahydro-1H-pyrazolo[3,4-c]pyridine-3-carboxamide]	–	0.058 µM	0.034 µM	0.026 µM	0.026 µM	0.003 µM	0.008 µM	–	–
Cn1nc(C(=O)NCc2ccc(C#N)cc2)c2c1C(=O)N(CC1(S(=O)(=O)C(C)(CO)CO)CC1)CC2 [Example 176, N-(4-Cyanobenzyl)-6-((1-((1,3-dihydroxy-2-methylpropan-2-yl)sulfonyl)cyclopropyl)methyl)-1-methyl-7-oxo-4,5,6,7-tetrahydro-1H-pyrazolo[3,4-c]pyridine-3-carboxamide]	0.002 µM	0.095 µM	0.074 µM	0.052 µM	0.052 µM	–	0.014 µM	0.039 µM	–
Cn1nc(C(=O)NCc2ccc(C#N)cc2)c2c1C(=O)N(CC1(S(=O)(=O)C(C)(C)[C@H](O)CO)CC1)CC2 [Example 193, (R)-N-(4-Cyanobenzyl)-6-((1-((3,4-dihydroxy-2-methylbutan-2-yl)sulfonyl)cyclopropyl)methyl)-1-methyl-7-oxo-4,5,6,7-tetrahydro-1H-pyrazolo[3,4-c]pyridine-3-carboxamide]	0.001 µM	0.058 µM	0.034 µM	–	0.026 µM	–	0.008 µM	–	–
Cn1nc(C(=O)NCc2ccc(C#N)cc2)c2c1C(=O)N(CC1(S(=O)(=O)C(C)(C)[C@H](O)CN)CC1)CC2 [Example 198, (R)-6-((1-((4-amino-3-hydroxy-2-methylbutan-2-yl)sulfonyl)cyclopropyl)methyl)-N-(4-cyanobenzyl)-1-methyl-7-oxo-4,5,6,7-tetrahydro-1H-pyrazolo[3,4-c]pyridine-3-carboxamide]	–	–	0.039 µM	0.018 µM	0.022 µM	–	0.004 µM	–	0.05 µM
N#Cc1ccc(CNC(=O)c2nn(CCO)c3c2CCN(CC2(S(=O)(=O)C4CC4)CC2)C3=O)cc1 [Example 216, N-(4-cyanobenzyl)-6-((1-(cyclopropylsulfonyl)cyclopropyl)methyl)-1-(2-hydroxyethyl)-7-oxo-4,5,6,7-tetrahydro-1H-pyrazolo[3,4-c]pyridine-3-carboxamide]	0.002 µM	–	0.109 µM	0.067 µM	0.067 µM	–	0.028 µM	–	0.112 µM
CC(C)(O)Cn1nc(C(=O)NCc2ccc(C#N)cc2)c2c1C(=O)N(CC1(S(=O)(=O)C3(CO)CC3)CC1)CC2 [Example 234, N-(4-Cyanobenzyl)-1-(2-hydroxy-2-methylpropyl)-6-((1-((1-(hydroxymethyl)cyclopropyl)sulfonyl)cyclopropyl)methyl)-7-oxo-4,5,6,7-tetrahydro-1H-pyrazolo[3,4-c]pyridine-3-carboxamide]	0.001 µM	0.083 µM	0.115 µM	0.049 µM	0.049 µM	–	0.011 µM	–	–
